This is an account of results in publication PMC8160210, “Single tryptophan Y160W mutant of homooligomeric E. coli purine nucleoside phosphorylase implies that dimers forming the hexamer are functionally not equivalent” (Scientific Reports, 2021).

In experiment [1] the target is T1, Y160W PNP mutant (Escherichia coli, UniProt P0ABP8, Y161W). In words: Near-UV CD titrations. Further details: made in house; host or cells: E. coli DH5α-T1. The experiment is classed as binding, E. coli. To be noted: for Kd: CD titrations with phosphate, three-binding-site model, 25 °C. Here is the method: (§1) Experiments were performed with Chirascan spectrophotometer (Applied Photophysics), in the near UV region (240–290 nm), thus in the region where aromatic amino acids absorb. Full spectra of the protein/complex were recorded, with 0.2 nm resolution and 2 s averaging per point. Enzyme concentration was in the range of 20–120 μM, the 50 mM Tris/HCl buffer pH 7.6 was used, ligands were dissolved in the same buffer. All measurements were performed at 25 °C. Upon addition of each volume of phosphate solution spectrum was recorded in the range 230–300 nm, in the amino acids absorption region, with 0.25 nm step and 2 s per point signal averaging. Spectra were smoothed with Savitzky-Golay algorithm[44] using a fourth degree polynomial and eleven points in the averaging window. The wavelengths of the greatest signal change were determined by calculating differential spectra. These wavelengths were used to plot the titration curves. Global analysis of five to seven curves was performed with DynaFit4[40].
(§2) Three models were taken into account in analysis of binding curves: model with one (first equation below), two (first two equations) and three binding sites. P+L⇔PLwithKd1PL+L⇔PLLwithKd2PLL+L⇔PLLLwithKd3
(§3) The model with one binding site is based on the assumption that all monomers are equivalent, and there is no cooperation between them. In the model with two binding sites the basic functional unit of the protein is a dimer, possible non-equivalence of binding sites or cooperativity between active sites in the dimer are taken into account (in the case of no cooperativity dissociation constants should be related statistically: Kd2 = 4Kd1), the dimers within hexamer are equivalent. The model with three binding sites is based on the crystallographic structures of binary and ternary complexes of PNP with ligands, where two of the dimers are in the “open-closed” conformation, but the third dimer is symmetrical, in the “open-open” conformation. Thus, active sites in the open conformation belonging to “open-closed” and “open-open” dimer may not be equivalent. […]
(§4) Titration series were analysed globally, always starting from the simplest, one-binding-site model. […] For all tested models the Akaike information criterion[23] was also calculated. […] Analysed models were fitted to the raw data, whereas graphs presented in this study were prepared from the normalised data and the fitted curves. […] Responses are defined as changes in a measured physical quantity related to the formation of subsequent protein–ligand complexes: intrinsic protein fluorescence intensity, fluorescence intensity of the dye, heat and ellipticity for fluorimetric, thermophoretic, calorimetric and CD titrations, respectively. […]

Experiment [2] addresses T1, Y160W PNP mutant. In words: Inhibition of m^7Guo phosphorolysis. Also noted: made in house; host or cells: E. coli DH5α-T1. The format is biochemical, E. coli. On the procedure:
All activity measurements and kinetic studies were done in 50 mM Hepes/HCl buffer pH 7.0 at 25 °C as previously described for the WT E. coli PNP and its active-site mutants, using direct spectrophotometric assay for adenosine, guanosine and 7-methylguanosine as substrates, and a coupled assay with xanthine oxidase in the case of inosine[13],[28],[29]. Activity measurements were performed for each protein sample, before and after each experiment as a control of the state of the protein.
To determine inhibition model and inhibition constant for formycin A, rate of phosphorolysis with m^7Guo as a variable substrate, at constant, 50 mM, phosphate concentration, was registered in the absence of the inhibitor and in the presence of two different concentrations of formycin. A global fitting to the whole data set was performed, using various models (competitive, uncompetitive, noncompetitive, mixed). As expected for the substrate analogue, competitive model described the data sufficiently well:3 v0c0=Vmax1c0/c0+KM1+ci/Ki where ci is inhibitor concentration. Kinetic data were analysed using the GraphPad Prism program (Intuitive Software for Science, San Diego, CA, USA).

The target of the next experiment is T2, WT E. coli PNP (Escherichia coli, UniProt P0ABP8).
T2 construct: made in house
T2 sequence (P0ABP8 2-239 limits assumed): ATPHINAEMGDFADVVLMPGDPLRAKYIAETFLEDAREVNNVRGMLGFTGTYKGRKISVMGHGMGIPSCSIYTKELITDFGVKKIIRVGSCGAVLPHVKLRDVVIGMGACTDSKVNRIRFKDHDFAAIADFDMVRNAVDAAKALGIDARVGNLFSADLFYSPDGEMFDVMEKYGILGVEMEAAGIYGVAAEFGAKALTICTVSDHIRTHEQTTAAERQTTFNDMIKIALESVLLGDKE
As to the kind of experiment: Near-UV CD titrations. To be noted: for Kd: CD titrations with phosphate, three-binding-site model, 25 °C. The experiment is classed as binding. On the procedure: as §1, §2, §3, §4

Where [3] appears, read: 50 mM Tris/HCl pH 7.6, read-out: Kd1 ± SD.
Setting [4] is: 50 mM Tris/HCl pH 7.6, read-out: Kd2 ± SD.
Where [5] appears, read: 50 mM Tris/HCl pH 7.6, read-out: Kd3 ± SD.

Structures are written as SMILES. Where two headings read alike, the source gives them in different places.

The Ki is a dissociation constant, usually derived from enzyme kinetics or from competition with a known ligand.

T1 sequence (P0ABP8 2-239 Y161W): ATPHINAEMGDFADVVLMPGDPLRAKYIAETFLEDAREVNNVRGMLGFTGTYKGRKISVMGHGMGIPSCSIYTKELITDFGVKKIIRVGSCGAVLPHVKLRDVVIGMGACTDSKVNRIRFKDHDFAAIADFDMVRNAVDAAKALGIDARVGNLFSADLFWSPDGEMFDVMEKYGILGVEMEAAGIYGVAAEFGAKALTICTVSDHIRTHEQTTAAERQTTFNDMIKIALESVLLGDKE

Take `Nc1ncnc2c([C@@H]3O[C@H](CO)[C@@H](O)[C@H]3O)[nH]nc12` [FA, Formycin A]: the “Change in CD signal upon binding” value at Y160W PNP mutant [1] (formycin A binding) and on WT E. coli PNP (formycin A binding) was “no changes in the CD signal” throughout. This compound gave a Ki at Y160W PNP mutant [2] of 42 ± 4 µM.
Consider `O=P(O)(O)O` [Pi, Orthophosphate], for which the Kd came out at 4.13 µM on Y160W PNP mutant [1] (setting [3]); 128 µM at Y160W PNP mutant [1] (setting [4]); 2330 µM on Y160W PNP mutant [1] (setting [5]); 0.58 µM at WT E. coli PNP (setting [3]); 107 µM at WT E. coli PNP (setting [4]); 1030 µM at WT E. coli PNP (setting [5]).
